Test results reported in the NIST ThermoML archive (doi:10.1016/j.fluid.2016.02.009).

Settings: Liquid, Vibrating tube method

CCCCOC [butyl methyl ether]
Settings	mass density [kg/m3]
283.15 K, 100 kPa	755.88
283.15 K, 5000 kPa	760.82
283.15 K, 10000 kPa	765.42
283.15 K, 15000 kPa	769.77
283.15 K, 20000 kPa	773.91
283.15 K, 25000 kPa	777.86
283.15 K, 30000 kPa	781.65
283.15 K, 35000 kPa	785.29
283.15 K, 40000 kPa	788.8
283.15 K, 45000 kPa	792.18
283.15 K, 50000 kPa	795.45
283.15 K, 55000 kPa	798.61
283.15 K, 60000 kPa	801.68
283.15 K, 65000 kPa	804.67
288.15 K, 100 kPa	750.88
288.15 K, 5000 kPa	756.01
288.15 K, 10000 kPa	760.78
288.15 K, 15000 kPa	765.26
288.15 K, 20000 kPa	769.53
288.15 K, 25000 kPa	773.58
288.15 K, 30000 kPa	777.48
288.15 K, 35000 kPa	781.19
288.15 K, 40000 kPa	784.79
288.15 K, 45000 kPa	788.24
288.15 K, 50000 kPa	791.57
288.15 K, 55000 kPa	794.8
288.15 K, 60000 kPa	797.94
288.15 K, 65000 kPa	800.98
293.15 K, 100 kPa	745.85
293.15 K, 5000 kPa	751.18
293.15 K, 10000 kPa	756.08
293.15 K, 15000 kPa	760.71
293.15 K, 20000 kPa	765.09
293.15 K, 25000 kPa	769.27
293.15 K, 30000 kPa	773.26
293.15 K, 35000 kPa	777.09
293.15 K, 40000 kPa	780.75
293.15 K, 45000 kPa	784.3
293.15 K, 50000 kPa	787.7
293.15 K, 55000 kPa	791
293.15 K, 60000 kPa	794.21
293.15 K, 65000 kPa	797.33
298.15 K, 100 kPa	740.78
298.15 K, 5000 kPa	746.29
298.15 K, 10000 kPa	751.36
298.15 K, 15000 kPa	756.15
298.15 K, 20000 kPa	760.68
298.15 K, 25000 kPa	764.97
298.15 K, 30000 kPa	769.08
298.15 K, 35000 kPa	772.99
298.15 K, 40000 kPa	776.76
298.15 K, 45000 kPa	780.38
298.15 K, 50000 kPa	783.87
298.15 K, 55000 kPa	787.24
298.15 K, 60000 kPa	790.51
298.15 K, 65000 kPa	793.65
303.15 K, 100 kPa	735.68
303.15 K, 5000 kPa	741.39
303.15 K, 10000 kPa	746.66
303.15 K, 15000 kPa	751.6
303.15 K, 20000 kPa	756.25
303.15 K, 25000 kPa	760.68
303.15 K, 30000 kPa	764.89
303.15 K, 35000 kPa	768.9
303.15 K, 40000 kPa	772.76
303.15 K, 45000 kPa	776.46
303.15 K, 50000 kPa	780.03
303.15 K, 55000 kPa	783.46
303.15 K, 60000 kPa	786.77
303.15 K, 65000 kPa	790
308.15 K, 100 kPa	730.53
308.15 K, 5000 kPa	736.43
308.15 K, 10000 kPa	741.88
308.15 K, 15000 kPa	746.98
308.15 K, 20000 kPa	751.8
308.15 K, 25000 kPa	756.35
308.15 K, 30000 kPa	760.67
308.15 K, 35000 kPa	764.79
308.15 K, 40000 kPa	768.74
308.15 K, 45000 kPa	772.53
308.15 K, 50000 kPa	776.18
308.15 K, 55000 kPa	779.69
308.15 K, 60000 kPa	783.07
308.15 K, 65000 kPa	786.36
313.15 K, 100 kPa	725.34
313.15 K, 5000 kPa	731.47
313.15 K, 10000 kPa	737.11
313.15 K, 15000 kPa	742.4
313.15 K, 20000 kPa	747.36
313.15 K, 25000 kPa	752.04
313.15 K, 30000 kPa	756.48
313.15 K, 35000 kPa	760.7
313.15 K, 40000 kPa	764.74
313.15 K, 45000 kPa	768.63
313.15 K, 50000 kPa	772.34
313.15 K, 55000 kPa	775.93
313.15 K, 60000 kPa	779.39
313.15 K, 65000 kPa	782.73
318.15 K, 100 kPa	720.1
318.15 K, 5000 kPa	726.46
318.15 K, 10000 kPa	732.32
318.15 K, 15000 kPa	737.77
318.15 K, 20000 kPa	742.89
318.15 K, 25000 kPa	747.69
318.15 K, 30000 kPa	752.27
318.15 K, 35000 kPa	756.62
318.15 K, 40000 kPa	760.76
318.15 K, 45000 kPa	764.73
318.15 K, 50000 kPa	768.51
318.15 K, 55000 kPa	772.16
318.15 K, 60000 kPa	775.71
318.15 K, 65000 kPa	779.13
323.15 K, 100 kPa	714.8
323.15 K, 5000 kPa	721.41
323.15 K, 10000 kPa	727.49
323.15 K, 15000 kPa	733.12
323.15 K, 20000 kPa	738.42
323.15 K, 25000 kPa	743.37
323.15 K, 30000 kPa	748.07
323.15 K, 35000 kPa	752.53
323.15 K, 40000 kPa	756.76
323.15 K, 45000 kPa	760.83
323.15 K, 50000 kPa	764.7
323.15 K, 55000 kPa	768.43
323.15 K, 60000 kPa	772.05
323.15 K, 65000 kPa	775.54
328.15 K, 100 kPa	709.45
328.15 K, 5000 kPa	716.32
328.15 K, 10000 kPa	722.64
328.15 K, 15000 kPa	728.5
328.15 K, 20000 kPa	733.93
328.15 K, 25000 kPa	739.05
328.15 K, 30000 kPa	743.83
328.15 K, 35000 kPa	748.41
328.15 K, 40000 kPa	752.76
328.15 K, 45000 kPa	756.92
328.15 K, 50000 kPa	760.91
328.15 K, 55000 kPa	764.72
328.15 K, 60000 kPa	768.39
328.15 K, 65000 kPa	771.91
333.15 K, 100 kPa	704.04
333.15 K, 5000 kPa	711.19
333.15 K, 10000 kPa	717.74
333.15 K, 15000 kPa	723.77
333.15 K, 20000 kPa	729.38
333.15 K, 25000 kPa	734.64
333.15 K, 30000 kPa	739.61
333.15 K, 35000 kPa	744.31
333.15 K, 40000 kPa	748.78
333.15 K, 45000 kPa	753.01
333.15 K, 50000 kPa	757.06
333.15 K, 55000 kPa	760.97
333.15 K, 60000 kPa	764.71
333.15 K, 65000 kPa	768.34
